Source: PubChem BioAssay (NCI)
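Following 48 hours of exposure in 96-well plates, responses at five concentrations were used to interpolate endpoints linearly. TGI: total growth inhibition.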

Key:
Test in all cases: NCI anticancer screen, dose series, 48 h
[1] = test system: 786-0 renal
[2] = test system: A498 renal
[3] = test system: A549 NSCLC
[4] = test system: ACHN renal
[5] = test system: CAKI-1 renal
[6] = test system: CCRF-CEM leukemia
[7] = test system: COLO 205 colon
[8] = test system: DLD-1 colon
[9] = test system: DMS 114 small cell lung
[10] = test system: DMS 273 small cell lung
[11] = test system: EKVX NSCLC
[12] = test system: HCC-2998 colon
[13] = test system: HCT-116 colon
[14] = test system: HL-60(TB) leukemia
[15] = test system: HOP-18 NSCLC
[16] = test system: HOP-62 NSCLC
[17] = test system: HOP-92 NSCLC
[18] = test system: HT29 colon
[19] = test system: IGROV1 ovarian
[20] = test system: K-562 leukemia
[21] = test system: KM12 colon
[22] = test system: KM20L2 colon
[23] = test system: LOX IMVI melanoma
[24] = test system: LXFL 529 NSCLC
[25] = test system: M14 melanoma
[26] = test system: M19-MEL melanoma
[27] = test system: MALME-3M melanoma
[28] = test system: MOLT-4 leukemia
[29] = test system: NCI-H226 lung
[30] = test system: NCI-H23 lung
[31] = test system: NCI-H460 lung
[32] = test system: NCI-H522 lung
[33] = test system: OVCAR-3 ovarian
[34] = test system: OVCAR-4 ovarian
[35] = test system: OVCAR-5 ovarian
[36] = test system: OVCAR-8 ovarian
[37] = test system: RPMI-8226 leukemia
[38] = test system: RXF 393 renal
[39] = test system: SF-268 CNS
[40] = test system: SF-295 CNS
[41] = test system: SF-539 CNS
[42] = test system: SK-MEL-2 melanoma
[43] = test system: SK-MEL-28 melanoma
[44] = test system: SK-MEL-5 melanoma
[45] = test system: SK-OV-3 ovarian
[46] = test system: SN12C renal
[47] = test system: SNB-19 CNS
[48] = test system: SNB-75 CNS
[49] = test system: SR leukemia
[50] = test system: SW-620 colon
[51] = test system: TK-10 renal
[52] = test system: U251 CNS
[53] = test system: UACC-257 melanoma
[54] = test system: UACC-62 melanoma
[55] = test system: UO-31 renal
[56] = test system: HCT-15 colon
[57] = test system: SNB-78 CNS

SMILES: COc1cc(/C=C2\NC(=S)C3Cc4c(OC)c(C)c(OC)c(OC)c4C2N3C)c(OC)c(C)c1OC (centres undefined)
- TGI [1]: > 100 µM
- TGI [2]: > 100 µM
- TGI [3]: > 100 µM
- TGI [4]: > 100 µM
- TGI [5]: > 100 µM
- TGI [6]: > 100 µM
- TGI [7]: 35.2 µM
- TGI [8]: > 100 µM
- TGI [9]: 92.1 µM
- TGI [10]: > 100 µM
- TGI [11]: > 100 µM
- TGI [12]: > 100 µM
- TGI [13]: > 100 µM
- TGI [14]: 67.6 µM
- TGI [15]: > 100 µM
- TGI [16]: > 100 µM
- TGI [17]: > 100 µM
- TGI [18]: > 100 µM
- TGI [19]: > 100 µM
- TGI [20]: > 100 µM
- TGI [21]: > 100 µM
- TGI [22]: > 100 µM
- TGI [23]: > 100 µM
- TGI [24]: > 100 µM
- TGI [25]: > 100 µM
- TGI [26]: > 100 µM
- TGI [27]: > 100 µM
- TGI [28]: > 100 µM
- TGI [29]: > 100 µM
- TGI [30]: > 100 µM
- TGI [31]: 30 µM
- TGI [32]: 97.9 µM
- TGI [33]: > 100 µM
- TGI [34]: > 100 µM
- TGI [35]: > 100 µM
- TGI [36]: > 100 µM
- TGI [37]: > 100 µM
- TGI [38]: 67.6 µM
- TGI [39]: > 100 µM
- TGI [40]: > 100 µM
- TGI [41]: > 100 µM
- TGI [42]: > 100 µM
- TGI [43]: > 100 µM
- TGI [44]: 73.1 µM
- TGI [45]: > 100 µM
- TGI [46]: > 100 µM
- TGI [47]: > 100 µM
- TGI [48]: > 100 µM
- TGI [49]: 55.3 µM
- TGI [50]: > 100 µM
- TGI [51]: > 100 µM
- TGI [52]: > 100 µM
- TGI [53]: > 100 µM
- TGI [54]: > 100 µM
- TGI [55]: > 100 µM

SMILES: O=[N+]([O-])c1cc(Cl)ccc1S(=O)(=O)c1ccc(Cl)cc1[N+](=O)[O-]
- TGI [1]: 28.9 µM
- TGI [3]: 70 µM
- TGI [4]: 29.7 µM
- TGI [5]: 33.9 µM
- TGI [6]: > 100 µM
- TGI [7]: 30.7 µM
- TGI [8]: 29.4 µM
- TGI [9]: 23.9 µM
- TGI [10]: 27.2 µM
- TGI [13]: 29.2 µM
- TGI [56]: 33 µM
- TGI [14]: 58 µM
- TGI [15]: 30.4 µM
- TGI [16]: 35.9 µM
- TGI [17]: 32.6 µM
- TGI [18]: 30.9 µM
- TGI [19]: 29.4 µM
- TGI [20]: > 100 µM
- TGI [21]: 27.7 µM
- TGI [22]: 31.3 µM
- TGI [23]: 32.5 µM
- TGI [24]: 27.2 µM
- TGI [25]: 30.4 µM
- TGI [26]: 28.7 µM
- TGI [27]: 26.6 µM
- TGI [28]: 84.4 µM
- TGI [29]: 25.1 µM
- TGI [30]: 29.2 µM
- TGI [31]: 31.5 µM
- TGI [32]: 29.9 µM
- TGI [33]: 31.1 µM
- TGI [34]: 37.2 µM
- TGI [35]: 34 µM
- TGI [36]: 29.5 µM
- TGI [37]: > 100 µM
- TGI [38]: 29.5 µM
- TGI [39]: 29.2 µM
- TGI [40]: 29 µM
- TGI [41]: 32.7 µM
- TGI [42]: 33 µM
- TGI [43]: 32 µM
- TGI [44]: 27.7 µM
- TGI [45]: 29.4 µM
- TGI [46]: 29.1 µM
- TGI [47]: 31.4 µM
- TGI [48]: 29.7 µM
- TGI [57]: 34.7 µM
- TGI [49]: 40.3 µM
- TGI [50]: 32.6 µM
- TGI [51]: 31.5 µM
- TGI [52]: 34.5 µM
- TGI [53]: 26.7 µM
- TGI [54]: 31 µM
- TGI [55]: 30.9 µM
